Results taken from patent US20090233796A1, “HERBICIDAL COMPOSITION” (SYNGENTA CROP PROTECTION, INC., priority 2004, published 2009).

What was measured:
Format in all cases: in vivo
CONYZA SP. = test: Compound (A) with paraquat, weed plots; settings: 5 DAA
Method: (§1) In these tests, various weeds were treated with paraquat alone at rates equivalent to 700 g per hectare and 840 g per hectare, compound (A) alone at rates equivalent to 10 g per hectare and 20 g per hectare, and with a mixture of paraquat and compound (A) at rates equivalent to the sum of these. The compositions were formulated as an emulsifyable concentrate (EC).
(§2) The results in the table under each application are the percentage of the weeds plants that were killed.

CYPERUS ROTUNDUS = test: Compound (A) with paraquat, weed plots; settings: 56 DAA, No. 1.11
Method: as §1, §2

DIGITARIA CILIARIS = test: Compound (A) with paraquat, weed plots; settings: 20 g/ha; 51 DAA; No. 1.7
Method: as §1, §2

E[…]-GALLI = test: Compound (A) with paraquat, weed plots; settings: 51 DAA, No. 1.8
Method: as §1, §2

LAMIUM PURPUREUM = test: Compound (A) with paraquat, weed plots; settings: 2 DAA, No. 1.5
Method: as §1, §2

LOLIUM RIGIDUM = test: Compound (A) with paraquat, weed plots; settings: 41 DAA, No. 1.4
Method: as §1, §2

SETARIA SP. = test: Compound (A) with paraquat, weed plots; settings: 27 DAA, No. 1.2
Method: as §1, §2

SETARIA VIRIDIS = test: Compound (A) with paraquat, weed plots; settings: 43 DAA, No. 1.3
Method: as §1, §2

SONCHUS ASPER = test: Compound (A) with paraquat, weed plots; settings: 32 DAA, No. 1.10
Method: as §1, §2

VERONICA PERSICA = test: Compound (A) with paraquat, weed plots; settings: 69 DAA, No. 1.6
Method: as §1, §2

CYPERUS SP. = test: Compound (A) with glyphosate, weed plots
Source text: (§3) The compositions were formulated as an emulsifyable concentrate (EC).
(§4) The results in the table under each application are the percentage of the plants that were killed.

HORDEUM PUSILLUM = test: Compound (A) with glyphosate, weed plots; settings: 13 DAA, No. 2.6
Source text: as §3, §4

STELLARIA MEDIA = test: Compound (A) with triasulfuron, weed plots; settings: 10 g per hectare; 30 DAA; No. 3.1
Method: In these tests, various weeds were treated with triasulfuron alone at a rate equivalent to 26 g per hectare, Compound (A) alone at a rate equivalent to 10 g per hectare, and to a mixture of triasulfuron and Compound (A) at rates equivalent to the sum of these. The compositions were formulated as an emulsifyable concentrate (EC).
as §4

COMMELINA SP. = test: Compound (A) with nicosulfuron, weed plots
Source text: In these tests, […] and Compound (A) at rates equivalent to the sum of these. The compositions were formulated as an emulsifyable concentrate (EC).
as §4

Ipomoea = test: Compound (A) with primisulfuron, weed plots; settings: 44 DAA, Trial 3.21
Method: In these tests, various weeds were treated with primisulfuron alone at a rate equivalent to 35 g per hectare, […] and Compound (A) at rates equivalent to the sum of these. The compositions were formulated as an emulsifiable concentrate (EC).
(§5) The results in the tables under each application are the percentage of the plants that were killed.

Brachiaria = test: Compound (A) with prosulfuron, weed plots; settings: 13 DAA, No. 3.27
Method: (§6) In these tests, various weeds were treated with prosulfinuron alone at a rate equivalent to 35 g per hectare, […] and Compound (A) at rates equivalent to the sum of these. The compositions were formulated as an emulsifiable concentrate (EC).
as §5

Euphorbia = test: Compound (A) with prosulfuron, weed plots; settings: 13 DAA, No. 3.28
Method: as §6, §5

Rice = test: Compound (A) with prosulfuron, weed plots; settings: 13 DAA, No. 3.29
Method: as §6, §5

Veronica = test: Compound (A) with prosulfuron, weed plots; settings: 13 DAA, No. 3.25
Method: as §6, §5

Wheat = test: Compound (A) with prosulfuron, weed plots; settings: 13 DAA, No. 3.30
Method: as §6, §5

ABUTILON THEOPHRASTI = test: Compound (A) with S-metolachlor, weed plots
Source text: […] The compositions were formulated as an emulsifyable concentrate (EC).
as §4

In the case of `CCOC(=O)COc1ncccc1Oc1cc(-n2c(=O)cc(C(F)(F)F)n(C)c2=O)c(F)cc1Cl` [Compound (A)], the “percentage of the weeds plants that were killed” value (CONYZA SP.; 10 g/ha, No. 1.1) is reported as 37%, the “percentage of the weeds plants that were killed” value (CONYZA SP.; 10 g/ha, No. 1.9) is reported as 37% and the “percentage of the weeds plants that were killed” value (CONYZA SP.; 20 g/ha, No. 1.1) is reported as 40%. For the same compound, the “percentage of the weeds plants that were killed” value (CONYZA SP.; 20 g/ha, No. 1.9) was 40%, the “percentage of the weeds plants that were killed” value (CYPERUS ROTUNDUS; 10 g/ha) was 0% and the “percentage of the weeds plants that were killed” value (CYPERUS ROTUNDUS; 20 g/ha) was 0%. The “percentage of the weeds plants that were killed” value (DIGITARIA CILIARIS) was 0%, the “percentage of the weeds plants that were killed” value (E[…]-GALLI; 10 g/ha) was 0% and the “percentage of the weeds plants that were killed” value (E[…]-GALLI; 20 g/ha) was 0%. For the same compound, the “percentage of the weeds plants that were killed” value (LAMIUM PURPUREUM; 10 g/ha) was 30%, the “percentage of the weeds plants that were killed” value (LAMIUM PURPUREUM; 20 g/ha) was 33% and the “percentage of the weeds plants that were killed” value (LOLIUM RIGIDUM; 10 g/ha) was 27%. The “percentage of the weeds plants that were killed” value (LOLIUM RIGIDUM; 20 g/ha) was 47%, the “percentage of the weeds plants that were killed” value (SETARIA SP.; 10 g/ha) was 0% and the “percentage of the weeds plants that were killed” value (SETARIA SP.; 20 g/ha) was 25%. The “percentage of the weeds plants that were killed” value (SETARIA VIRIDIS; 10 g/ha) was 0%, the “percentage of the weeds plants that were killed” value (SETARIA VIRIDIS; 20 g/ha) was 23% and the “percentage of the weeds plants that were killed” value (SONCHUS ASPER; 10 g/ha) was 60%. The “percentage of the weeds plants that were killed” value (SONCHUS ASPER; 20 g/ha) was 55%, the “percentage of the weeds plants that were killed” value (VERONICA PERSICA; 10 g/ha) was 25% and the “percentage of the weeds plants that were killed” value (VERONICA PERSICA; 20 g/ha) was 100%. For the same compound, the “percentage of the plants that were killed” value (CYPERUS SP.; 10 g/ha, 1 DAA, No. 2.3) was 0%, the “percentage of the plants that were killed” value (CYPERUS SP.; 10 g/ha, 52 DAA, No. 2.4) was 0% and the “percentage of the plants that were killed” value (CYPERUS SP.; 20 g/ha, 1 DAA, No. 2.3) was 0%. For the same compound, the “percentage of the plants that were killed” value (CYPERUS SP.; 20 g/ha, 52 DAA, No. 2.4) was 0%, the “percentage of the plants that were killed” value (HORDEUM PUSILLUM; 10 g/ha) was 60% and the “percentage of the plants that were killed” value (HORDEUM PUSILLUM; 20 g/ha) was 70%. The “percentage of the plants that were killed” value (STELLARIA MEDIA) was 63%, the “percentage of the plants that were killed” value (COMMELINA SP.; 5 g/ha, 10 DAA, No. 3.18) was 30% and the “percentage of the plants that were killed” value (COMMELINA SP.; 5 g/ha, 17 DAA, No. 3.19) was 20%. For the same compound, the “percentage of the plants that were killed” value (COMMELINA SP.; 10 g/ha, 10 DAA, No. 3.18) was 50%, the “percentage of the plants that were killed” value (COMMELINA SP.; 10 g/ha, 17 DAA, No. 3.19) was 30% and the “percentage of the plants that were killed” value (COMMELINA SP.; 20 g/ha, 10 DAA, No. 3.18) was 58%. For the same compound, the “percentage of the plants that were killed” value (COMMELINA SP.; 20 g/ha, 17 DAA, No. 3.19) was 50%, the “percentage of the plants that were killed” value (Ipomoea; 1.25 g/ha) was 80% and the “percentage of the plants that were killed” value (Ipomoea; 2.5 g/ha) was 100%. The “percentage of the plants that were killed” value (Ipomoea; 5 g/ha) was 100%, the “percentage of the plants that were killed” value (Brachiaria; 1.25 g/ha) was 50% and the “percentage of the plants that were killed” value (Brachiaria; 2.5 g/ha) was 60%. For the same compound, the “percentage of the plants that were killed” value (Brachiaria; 5 g/ha) was 98%, the “percentage of the plants that were killed” value (Euphorbia; 1.25 g/ha) was 50% and the “percentage of the plants that were killed” value (Euphorbia; 2.5 g/ha) was 70%. The “percentage of the plants that were killed” value (Euphorbia; 5 g/ha) was 70%, the “percentage of the plants that were killed” value (Rice; 1.25 g/ha) was 50% and the “percentage of the plants that were killed” value (Rice; 2.5 g/ha) was 70%. For the same compound, the “percentage of the plants that were killed” value (Rice; 5 g/ha) was 90%, the “percentage of the plants that were killed” value (Veronica; 1.25 g/ha) was 80% and the “percentage of the plants that were killed” value (Veronica; 2.5 g/ha) was 100%. The “percentage of the plants that were killed” value (Veronica; 5 g/ha) was 100%, the “percentage of the plants that were killed” value (Wheat; 1.25 g/ha) was 80% and the “percentage of the plants that were killed” value (Wheat; 2.5 g/ha) was 95%. The “percentage of the plants that were killed” value (Wheat; 5 g/ha) was 100%, the “percentage of the plants that were killed” value (ABUTILON THEOPHRASTI; 20 g/ha, 15 DAA, Trial 4.12) was 25% and the “percentage of the plants that were killed” value (ABUTILON THEOPHRASTI; 20 g/ha, 23 DAA, Trial 4.3) was 43%. For the same compound, the “percentage of the plants that were killed” value (ABUTILON THEOPHRASTI; 20 g/ha, 38 DAA, Trial 4.4) was 35%, the “percentage of the plants that were killed” value (ABUTILON THEOPHRASTI; 20 g/ha, 56 DAA, Trial 4.13) was 0% and the “percentage of the plants that were killed” value (ABUTILON THEOPHRASTI; 40 g/ha, 15 DAA, Trial 4.12) was 88%. The “percentage of the plants that were killed” value (ABUTILON THEOPHRASTI; 40 g/ha, 23 DAA, Trial 4.3) was 78%, the “percentage of the plants that were killed” value (ABUTILON THEOPHRASTI; 40 g/ha, 38 DAA, Trial 4.4) was 70% and the “percentage of the plants that were killed” value (ABUTILON THEOPHRASTI; 40 g/ha, 56 DAA, Trial 4.13) was 13%.
